Counter-ions that a name gives are not always drawn. Like-named read-outs stand apart in the source and are kept apart here.
Legend:
monkey hepatocytes = experiment: Hydrolysis of prodrug in hepatocytes (monkey); format: in vitro ADME; conditions: monkey hepatocytes, qualitative
Experimental: (§1) The in vitro intrinsic clearance of Ibb in hepatocytes (Clint) was calculated as follows: Clint(μL/min/million cells)=Rate/CE where Rate is the rate of metabolism in hepatocytes (pmol/min/million cells), and CE is the concentration of Ibb in the incubation. The in vitro intrinsic clearance of Icb in hepatocytes (Clint) was calculated as follows: Clint(μL/min/million cells)=Rate/CE where Rate is the rate of metabolism in hepatocytes (pmol/min/million cells), and CE is the concentration of Icb in the incubation.

[1] = molecular target: T1, human placental alkaline phosphatase (ALP) (Homo sapiens, UniProt P05187); experiment: Hydrolysis of prodrug in human placental ALP solutions; format: in vitro ADME; conditions: human placental ALP solution, 37°C, 120 min, read-out: t1/2 (min) of prodrug disappearance
T1 construct: To study the hydrolysis of lab in a purified form of human ALP, Iab was incubated in human placental ALP solutions; host or cells: human placenta (inferred from the name and from 'ALP derived from humans')
T1 sequence (P05187 23-506 limits assumed): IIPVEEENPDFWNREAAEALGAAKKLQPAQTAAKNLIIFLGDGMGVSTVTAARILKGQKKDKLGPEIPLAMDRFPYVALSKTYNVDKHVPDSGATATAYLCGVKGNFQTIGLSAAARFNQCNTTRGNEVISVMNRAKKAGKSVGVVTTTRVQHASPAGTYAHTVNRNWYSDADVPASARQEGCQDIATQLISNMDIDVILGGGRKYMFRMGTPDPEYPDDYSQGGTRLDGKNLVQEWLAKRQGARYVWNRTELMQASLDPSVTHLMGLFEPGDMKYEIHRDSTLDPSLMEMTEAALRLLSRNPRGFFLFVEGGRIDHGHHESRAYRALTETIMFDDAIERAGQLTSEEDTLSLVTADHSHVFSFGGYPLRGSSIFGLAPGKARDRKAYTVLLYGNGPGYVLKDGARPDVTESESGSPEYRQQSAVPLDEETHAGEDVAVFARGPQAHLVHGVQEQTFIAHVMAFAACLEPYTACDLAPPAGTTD
Experimental: Solid human placental ALP was obtained from Sigma (P-3895, St. Louis, Mo.). […] Solutions of 100 and 10 units/L were obtained by serial dilution. Iab was incubated in the 10, 100 and 1000 units/L solutions (n=2) at 37° C. for 2 hr. The starting concentration of Iab in the incubation was 10 μM. Aliquots of 100 μL samples were taken at pre-determined times and added into K2EDTA microtainers followed by the addition of 200 μL of acetonitrile.
Solid human placental ALP was obtained from Sigma (P-3895, St. Louis, Mo.). […] Solutions of 100 and 10 units/L were obtained by serial dilution. Ibb was incubated in the 10, 100 and 1000 units/L solutions (n=2) at 37° C. for 2 hr. The starting concentration of Ibb in the incubation was 10 μM. Aliquots of 100 μL samples were taken at pre-determined times and added into K2EDTA microtainers followed by the addition of 200 μL of acetonitrile.
Solid human placental ALP was obtained from Sigma (P-3895, St. Louis, Mo.). […] Solutions of 100 and 10 units/L were obtained by serial dilution. Icb was incubated in the 10, 100 and 1000 units/L solutions (n=2) at 37° C. for 2 hr. The starting concentration of Icb in the incubation was 10 μM. Aliquots of 100 μL samples were taken at pre-determined times and added into K2EDTA microtainers followed by the addition of 200 μL of acetonitrile. The supernatant was analyzed for both Icb and IVe by LC/MS/MS.

[2] = Stability of prodrug in Tris-HCl buffer; conditions: for Ibb: Ibb in Tris-HCl buffer, 37° C., n = 2
Experimental: The stability of Iab was also evaluated, as described above, in Tris-HCl buffer (0.1 M, pH 7.5). The stability of Ibb was also evaluated, as described above, in Tris-HCl buffer (0.1 M, pH 7.5). The stability of Icb was also evaluated, as described above, in Tris-HCl buffer (0.1 M, pH 7.5).

[3] = Stability (hydrolysis) of prodrug in fresh serum (human); conditions: Ibb in fresh human serum, 37° C., n = 2
[4] = Stability (hydrolysis) of prodrug in fresh serum (monkey); conditions: Ibb in fresh monkey serum, 37° C., n = 2
dog hepatocytes = experiment: Hydrolysis of prodrug in hepatocytes (dog); format: in vitro ADME; conditions: dog hepatocytes, qualitative
Experimental: as §1

[5] = Stability of prodrug in fresh EDTA blood (dog); conditions: for Ibb: Ibb in fresh dog EDTA blood, 37° C., n = 2
Experimental: (§2) The stability of Iab was studied in fresh blood and serum from rat, dog, monkey and human (n=2). The blood was collected in vacutainers containing K2EDTA (Becton Dickinson, Franklin Lakes, N.J.). The serum was collected in vacutainers containing no anticoagulant. Iab was incubated at a starting concentration of approximately 10 μM for 60-90 min at 37° C. Serial samples were taken at the pre-determined times. Aliquots of blood samples (200 μL) were first mixed with 100 μL of water followed by 400 μL of acetonitrile. The serum samples (50 μL) were added into microtainers containing K2EDTA (Becton Dickinson, Franklin Lakes, N.J.) followed by the addition of 100 μL of acetonitrile. The supernatant was analyzed for both Iab and IVa by LC/MS/MS. The stability of Ibb was studied in fresh blood and serum from rat, dog, monkey and human (n=2). The blood was collected in vacutainers containing K2EDTA (Becton Dickinson, Franklin Lakes, N.J.). The serum was collected in vacutainers containing no anticoagulant. Ibb was incubated at a starting concentration of approximately 15 μM for 90 min at 37° C. Serial samples were taken at the pre-determined times. Aliquots of blood samples (200 μL) were first mixed with 100 μL of water followed by 400 μL of acetonitrile. The serum samples (50 μL) were added into microtainers containing K2EDTA (Becton Dickinson, Franklin Lakes, N.J.) followed by the addition of 100 μL of acetonitrile. […] The stability of Icb was studied in fresh blood and serum from rat, dog, monkey and human (n=2). The blood was collected in vacutainers containing K2EDTA (Becton Dickinson, Franklin Lakes, N.J.). The serum was collected in vacutainers containing no anticoagulant. Icb was incubated at a starting concentration of approximately 10 μM for 90 min at 37° C. Serial samples were taken at the pre-determined times. Aliquots of blood samples (200 μL) were first mixed with 100 μL of water followed by 400 μL of acetonitrile. The serum samples (50 μL) were added into microtainers containing K2EDTA (Becton Dickinson, Franklin Lakes, N.J.) followed by the addition of 100 μL of acetonitrile.

in vitro = conditions: rat, serum
Experimental: as §2

Which “hydrolysis in the presence of hepatocytes” value (monkey hepatocytes) does the source give for `O=C(C(=O)N1CCN(C(=O)c2ccccc2)CC1)c1cn(COP(=O)(O)O)c2c(-n3ccnn3)ncc(F)c12` [Ibb, [3-[(4-benzoylpiperazin-1-yl)(oxo)acetyl]-4-fluoro-7-(1H-1,2,3-triazol-1-yl)-1H-pyrrolo[2,3-c]pyridin-1-yl]methyl dihydrogen phosphate, L-lysine salt (1:1)] here?
Its value is “No turnover was observed”.

What about the half-life at 10 μM ([1]; pH 7.5, ALP Activity 10 Units/L) of the same compound?
The half-life at 10 μM was 198 min.

What about the half-life at 10 μM ([1]; pH 7.5, ALP Activity 100 Units/L) of the same compound?
Its half-life at 10 μM is 16 min.

And the half-life at 10 μM ([1]; pH 7.5, ALP Activity 1000 Units/L)?
Its half-life at 10 μM is 2 min.

And the “stability / conversion of prodrug to parent in Tris-HCl buffer” value ([2]; 37°C, 60 min (Iab) or 90 min (Ibb, Icb))?
The value was “less than 2%”.

What about the “Ibb” value ([2]; 0 min) of the same compound?
Its value is 14 µM.

What about the “Ibb” value ([2]; 15 min) of the same compound?
The value was 12 µM.

What about the “Ibb” value ([2]; 30 min) of the same compound?
The value was 13 µM.

What about the “Ibb” value ([2]; 45 min) of the same compound?
Its value is 12 µM.

What about the “Ibb” value ([2]; 60 min) of the same compound?
The value was 13 µM.

What about the “Ibb” value ([2]; 90 min) of the same compound?
The value was 12 µM.

What about the “Ibb” value ([3]; 0 min) of the same compound?
Its value is 13 µM.

And the “Ibb” value ([3]; 15 min)?
The value was 9.0 µM.

And the “Ibb” value ([3]; 30 min)?
The value was 10 µM.

And the “Ibb” value ([3]; 45 min)?
The value was 10 µM.

What about the “Ibb” value ([3]; 60 min) of the same compound?
Its value is 8.0 µM.

And the “Ibb” value ([3]; 90 min)?
Its value is 6.5 µM.

And the “Ibb” value ([4]; 0 min)?
The value was 14 µM.

And the “Ibb” value ([4]; 15 min)?
The value was 6.6 µM.

What about the “Ibb” value ([4]; 30 min) of the same compound?
Its value is 3.1 µM.

What about the “Ibb” value ([4]; 45 min) of the same compound?
The value was 1.7 µM.

What about the “Ibb” value ([4]; 60 min) of the same compound?
The value was 0.85 µM.

And the “Ibb” value ([4]; 90 min)?
Its value is 0.22 µM.

What about the “hydrolysis in the presence of hepatocytes” value (dog hepatocytes) of the same compound?
The value was “hydrolyzed”.

What about the “Ibb” value ([5]; 0 min) of the same compound?
Its value is 13 µM.

What about the “Ibb” value ([5]; 15 min) of the same compound?
The value was 12 µM.

What about the “Ibb” value ([5]; 30 min) of the same compound?
The value was 15 µM.

And the “Ibb” value ([5]; 45 min)?
Its value is 16 µM.

And the “Ibb” value ([5]; 60 min)?
Its value is 13 µM.

And the “Ibb” value ([5]; 90 min)?
Its value is 16 µM.

And the “conversion of prodrug to parent in blood containing EDTA” value ([5]; dog blood, 37°C, 60 min (Iab) or 90 min (Ibb, Icb))?
The value was < 2%.

What about the half-life at 15 μM (in vitro) of the same compound?
Its half-life at 15 μM is 11.7 h.

Reference: patent US20150315218A1, “SALTS OF PRODRUGS OF PIPERAZINE AND SUBSTITUTED PIPERIDINE ANTIVIRAL AGENTS” (Bristol-Myers Squibb Company, priority 2004, published 2015)
